{
  "source": "ChEMBL document CHEMBL1138604",
  "about": "“Structure-activity relationships of lipopolysaccharide sequestration in N-alkylpolyamines” (Bioorg Med Chem Lett, 2009)",
  "note": "Active and inactive are the calls of the source. The rule behind the calls is not given here.",
  "data": [
    {"system": "HEK293", "test": "Inhibition of LPS-induced NF-kappaB nuclear transactivation in HEK293 cells transfected with TLR4 coexpressing MD2 and CD14 co-receptor assessed as alkaline phosphatase activity by spectrophotometry", "format": "cell-based", "settings": "Homo sapiens", "values": [
      {"molecule": "CCCCCCCCCCCCCCCCNCCCNCCCNCCCN", "Activity": "Active"},
      {"molecule": "CCCCCCCCCCCCCCCCNCCCNCCCNCCCNCCCN", "Activity": "Active"},
      {"molecule": "CCCCCCCCCCCCCCCCNCCCNCCCCNCCCN", "Activity": "Active"},
      {"molecule": "CCCCCCCCCCCCCCCCNCCCNCCCNCCCNCCCNCCCN", "Activity": "Active"},
      {"molecule": "CCCCCCCCCCCCCCCCNCCCNCCCNCCCCNCCCNCCCN", "Activity": "Active"},
      {"molecule": "CCCCCCCCCCCCCCCCNCCCNCCCNCCCCNCCCN", "Activity": "Active"}
    ]}
  ]
}
